Data set [1] concerns zfOatp1f4-1. In kind it is in vitro ADME, zebrafish (Danio rerio).
The next data set relates to zfOatp2b1. In kind it is in vitro ADME, zebrafish (Danio rerio).
Data set [2] concerns zfOatp1f2-1. Type of data set: in vitro ADME, zebrafish (Danio rerio).
The subject of data set [3] is zfOatp1f4-2. Type of data set: in vitro ADME, zebrafish (Danio rerio).
Data set [4] has as its system zfOatp1d1. Type of data set: in vitro ADME, zebrafish (Danio rerio).
For data set [5], the system named is zfOatp1f1. Type of data set: in vitro ADME, zebrafish (Danio rerio).
The subject of data set [6] is zfOatp1f4-2. In kind it is in vitro ADME, zebrafish (Danio rerio). The source holds these as a separate data set.
The test system of data set [7] is zfOatp1f1. In kind it is in vitro ADME, zebrafish (Danio rerio). The source holds these as a separate data set.
The test system of data set [8] is zfOatp1d1. Type of data set: in vitro ADME, zebrafish (Danio rerio). This is another data set of the same source.
In data set [9] the test system is Ser/Thr protein phosphatases (ser/thrPP). The note with it: cited from earlier work.
The test system of data set [10] is zfOatp1f2-2. In kind it is in vitro ADME, zebrafish (Danio rerio).
Data set [11] has as its system zfOatp1f4-1. Type of data set: in vitro ADME, zebrafish (Danio rerio). The source holds these as a separate data set.
In the next data set the test system is OATPs. As to conditions: cited from earlier work.
The test system of data set [12] is zfOatp1f2-1. In kind it is in vitro ADME, zebrafish (Danio rerio). The source holds these as a separate data set.
In data set [13] the test system is zfOatp1f3. In kind it is in vitro ADME, zebrafish (Danio rerio).
The subject of another data set is carp. The note with it: in vivo, po; cited from earlier work.
Data set [14] relates to zfOatp1f2-2. In kind it is in vitro ADME, zebrafish (Danio rerio). The source holds these as a separate data set.
The test system of the next data set is zfOatp4a1. In kind it is in vitro ADME, zebrafish (Danio rerio).
Data set [15] deals with zfOatp1f3. In kind it is in vitro ADME, zebrafish (Danio rerio). This is another data set of the same source.
[16] abbreviates: uptake for up to 30 min, transfected HEK293 (Figure S1).

Structures can show the parent of a compound that is named as a salt.

As to `C[C@H](CCC(=O)NCCS(=O)(=O)O)[C@H]1CC[C@H]2[C@@H]3[C@H](O)C[C@@H]4C[C@H](O)CC[C@]4(C)[C@H]3C[C@H](O)[C@]12C` [TCA, taurocholic acid], the “transport of Oatp substrate (uptake vs empty vector cells)” value is on record as “none of the other zfOatps transported” in the data set on zfOatp1f4-1 [1]; “did not transport any of the three substrates” in the data set on zfOatp2b1; “did not transport any of the three substrates” in the data set on zfOatp1f2-1 [2]; “none of the other zfOatps transported” in the data set on zfOatp1f4-2 [3]; “transported” with zfOatp1d1 [4]; “did not transport any of the three substrates” with zfOatp1f1 [5].
On to `C[C@]12CC[C@@H]3c4ccc(OS(=O)(=O)O)cc4CC[C@H]3[C@@H]1CCC2=O` [E3S, estrone sulfate ammonium salt], for which the “[3H] E3S transport, prolonged uptake” value in the data set on zfOatp1f2-1 [2] (setting [16]) and with zfOatp1f1 [5] (setting [16]) was “no [^3H] E3S transport was observed” each time.
On to Microcystin-LF [MC-LF], for which the “MC congener transport (screen)” value in the data set with zfOatp1f4-2 [6] is “transported”; in the data set with zfOatp1f1 [7], “absence of MC transport”; in the data set on zfOatp1d1 [8] it was “transported all tested MC-congeners”; in the data set on zfOatp1f2-2 [10] it was “did not transport any of the four MC-congeners tested”; in the data set with zfOatp1f4-1 [11], “transported”; in the data set on zfOatp1f2-1 [12] it was “did take up”. For the same molecule, the “MC congener transport (screen)” value in the data set on zfOatp1f3 [13] was “did not transport any of the four MC-congeners tested”. In addition, the entries for the “time dependent MC uptake, relative speed” value with zfOatp1f4-2 [6], with zfOatp1f4-1 [11] and in the data set with zfOatp1f2-1 [12] were “Comparable transport”, “Comparable transport” and “slower than that observed for zfOatp1d1”, respectively. Further, in the data set with zfOatp1d1 [8], the “affinity of zfOatp1d1 (Km), MC-LF compared to MC-LR” value was found to be 2 fold. For the same molecule, in the data set on zfOatp1d1 [8], the “concentration dependent uptake (saturability)” value is on record as “saturable”. The “relative Vmax (uptake velocity), MC-LF versus MC-LR” value in the data set with zfOatp1d1 [8] was found to be 6 fold. In addition, the “time within which transport occurred” value with zfOatp1d1 [8] is recorded as not above 1 h. In [9], the “inhibition of ser/thrPP activities” value is recorded as “approximately equimolar concentrations”. Besides, the “MC congener transport by OATPs” value in the data set on OATPs is given as “transport was demonstrated”.
In the case of Microcystin-LR [MC-LR], in the data set with zfOatp1f1 [7], the “MC congener transport (screen)” value is given as “absence of MC transport”. In the data set on zfOatp1d1 [8], the “MC congener transport (screen)” value was “transported all tested MC-congeners”, the “concentration dependent uptake (saturability)” value is on record as “saturable” and the “time up to which uptake is linear” value was “up to 6 h”. Also, in the data set on carp, the “MC-LR in brain and muscle tissue” value is recorded as “detectable”; the “pathological changes in hepatopancreas and kidney” value is given as “time-dependent pathological changes”. Further, the “inhibition of ser/thrPP activities” value in data set [9] is “approximately equimolar concentrations”. For the same molecule, the “MC congener transport (screen)” value with zfOatp1f2-2 [10] is “did not transport any of the four MC-congeners tested”. Moreover, in the data set on OATPs, the “MC congener transport by OATPs” value was “comparably minor extent”. In addition, in the data set with zfOatp1f2-1 [12], the “MC congener transport (screen)” value is listed as “did take up”; the “time dependent MC uptake, relative speed” value is “much slower than MC-LW and MC-LF”. Moreover, the “MC congener transport (screen)” value with zfOatp1f3 [13] is “did not transport any of the four MC-congeners tested”.
As to Microcystin-RR [MC-RR], the “MC congener transport (screen)” value is “absence of MC transport” in the data set on zfOatp1f1 [7], “transported all tested MC-congeners” in the data set on zfOatp1d1 [8], “did not transport any of the four MC-congeners tested” in the data set with zfOatp1f2-2 [10] and “did not transport any of the four MC-congeners tested” in the data set with zfOatp1f3 [13]. For the same molecule, in the data set on zfOatp1d1 [8], the “time after which nearly linear uptake plateaus” value is 12 h. Further, in data set [9], the “inhibition of ser/thrPP activities” value is on record as “approximately equimolar concentrations”. In addition, in the data set with OATPs, the “MC congener transport by OATPs” value is listed as “lacked transport”.
Regarding `CN(Cc1cnc2nc(N)nc(N)c2n1)c1ccc(C(=O)N[C@@H](CCC(=O)O)C(=O)O)cc1` [MTX, methotrexate disodium salt], the “transport of Oatp substrate (uptake vs empty vector cells)” value was “none of the other zfOatps transported” in the data set with zfOatp1f4-1 [1]; “did not transport any of the three substrates” with zfOatp2b1; “none of the other zfOatps transported” in the data set with zfOatp1f2-2 [14]; “did not transport any of the three substrates” in the data set with zfOatp1f2-1 [2]; “none of the other zfOatps transported” in the data set on zfOatp1f4-2 [3]; “transported” in the data set on zfOatp1d1 [4]. The “transport of Oatp substrate (uptake vs empty vector cells)” value is recorded as “did not transport any of the three substrates” in the data set with zfOatp4a1, “did not transport any of the three substrates” in the data set on zfOatp1f1 [5] and “none of the other zfOatps transported” with zfOatp1f3 [15].
Consider Microcystin-LW [MC-LW], for which the “MC congener transport (screen)” value with zfOatp1f1 [7] is “absence of MC transport”; in the data set on zfOatp1d1 [8], “transported all tested MC-congeners”; in the data set on zfOatp1f2-2 [10], “did not transport any of the four MC-congeners tested”; in the data set on zfOatp1f2-1 [12], “did take up”; in the data set on zfOatp1f3 [13], “did not transport any of the four MC-congeners tested”. Further, the “time within which transport occurred” value with zfOatp1d1 [8] was not above 1 h. Also, the “inhibition of ser/thrPP activities” value in data set [9] is “approximately equimolar concentrations”. Also, the “MC congener transport by OATPs” value in the data set with OATPs was “transport was demonstrated”. For the same molecule, the “time dependent MC uptake, relative speed” value with zfOatp1f2-1 [12] is on record as “slower than that observed for zfOatp1d1”.

The values are drawn from publication PMC4674391 (Archives of toxicology, 2015).
